Data published in US9271487B2, “Protein stabilized antimicrobial composition formed by melt processing” (Kimberly-Clark Worldwide, Inc., priority 2010, dated 2016).

Assay: Thymol Concentrations in Extractions (thymol released into liquid, HPLC)
Format: physicochemical
Details: neat thymol <250 microns, 2 g, 30 mins
Protocol: An aliquot of a sample was centrifuged at approximately 5000 rpm until visible settling occurred (approximately 30 minutes). […]. The contents were dissolved and diluted with a 0.1% AA:IPA (50:50) solution to volume. The solution was then filtered with Pall Acrodisc 0.45 micron nylon membrane. The thymol concentration was determined through “High Performance Liquid Chromatography (HPLC) analysis” according to the following conditions:
HPLC Equipment & Conditions
HPLC: Agilent 1100 HPLC system.
Column: Phenomenex Luna NH2 (5 μm, 250 mm×4.6 mm)-ambient
Detector: UV/Vis at 280 nm
Mobile Phases: (75:25) (IPA: 0.1% acetic acid)
Flow Rate: approximately 0.6 mL/min.
Injection Volume: approximately 15 μL

## Cc1ccc(C(C)C)c(O)c1 [thymol, Thymol]
0 g citric acid, 100 mL deionized water
  % Thymol (wt/wt) in extract solution: 0.084 % (wt/wt)
1.14 g citric acid, 97 mL deionized water
  % Thymol (wt/wt) in extract solution: 0.081 % (wt/wt)
